{
  "source": "patent US11572590B2",
  "about": "“Methods for evaluating tumor cell spheroids using 3D microfluidic cell culture device” (Dana-Farber Cancer Institute, Inc., priority 2017, dated 2023)",
  "tested_on": "B16F10 MDOTS",
  "experiment": "Live/dead (AO/PI) imaging of B16F10 MDOTS in 3D microfluidic culture",
  "type": "cell-based, murine",
  "conditions": "Cmpd1 (1 μM) + αPD-1, 6 days",
  "procedure": "Fresh tumor specimens (murine and human patients) were received in media (DMEM) on ice and minced in a 10 cm dish (on ice) using sterile forceps and scalpel. Minced tumor was resuspended in DMEM ([…], […] sodium pyruvate, 1:100 penicillin-streptomycin) (Corning CellGro, Manassas, Va.) +10% FBS (Gemini Bio-Products, West Sacramento, Calif.), 100 U/mL collagenase type IV (Life Technologies, Carlsbad, Calif.), and 15 mM HEPES (Life Technologies, Carlsbad, Calif.), except for CT26 tumors that were prepared in RPMI. Samples were pelleted and resuspended in 10-20 mL media. Red blood cells were removed from visibly bloody samples using RBC Lysis Buffer (Boston Bio-Products, Ashland, Mass.). […]\nDual labeling was performed by loading microfluidic device with Nexcelom ViaStain™ AO/PI Staining Solution (Nexcelom, CS2-0106). Following incubation with the dyes (20 minutes at room temperature in the dark), images were captured on a Nikon Eclipse 80i fluorescence microscope equipped with Z-stack (Prior) and CoolSNAP CCD camera (Roper Scientific). […] Live and dead cell quantitation was performed by measuring total cell area of each dye. […]",
  "data": [
    {"smiles": "N#Cc1cc(-c2ncnc(Nc3ccc(N4CCN(C5COC5)CC4)cc3)n2)ccc1OC1CCOCC1", "note": "[Compound 1, 5-(4-((4-(4-(oxetan-3-yl)piperazin-1-yl)phenyl)amino)-1,3,5-triazin-2-yl)-2-((tetrahydro-2H-pyran-4-yl)oxy)benzonitrile]", "values": [
      {"measurement": "sensitization of B16F10 MDOTS to PD-1 blockade (live/dead)", "result": "could not be sensitized"}
    ]}
  ]
}
